Results taken from patent publication US8383637B2, “2-amino-quinazoline derivatives useful as inhibitors of β-secretase (BACE)” (Jansssen Pharmaceutica N.V., priority 2004, dated 2013).
Where two headings read alike, the source gives them in different places.

Molecular target: T1, β-secretase(BACE) (Homo sapiens, UniProt P56817)
T1 construct: purchased Panvera
Test: BACE FS1% Inhibition Assay
Format: biochemical
Details: FS1 substrate
In short: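 Percent inhibition at each tested concentration, referenced to enzyme-free blank and vehicle-only positive control. Reaction: compound and BACE (4 μg/mL working stock) mixed 20 min at room temperature before FS1 substrate (300 μg/mL working stock), then 1 h at room temperature.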

[1] = 0.3 μM test compound, read-out: % Inhibition (FS)
[2] = 1 μM test compound, read-out: % Inhibition (FS)
[3] = 3 μM test compound, read-out: % Inhibition (FS)

T1 sequence (P56817 46-501): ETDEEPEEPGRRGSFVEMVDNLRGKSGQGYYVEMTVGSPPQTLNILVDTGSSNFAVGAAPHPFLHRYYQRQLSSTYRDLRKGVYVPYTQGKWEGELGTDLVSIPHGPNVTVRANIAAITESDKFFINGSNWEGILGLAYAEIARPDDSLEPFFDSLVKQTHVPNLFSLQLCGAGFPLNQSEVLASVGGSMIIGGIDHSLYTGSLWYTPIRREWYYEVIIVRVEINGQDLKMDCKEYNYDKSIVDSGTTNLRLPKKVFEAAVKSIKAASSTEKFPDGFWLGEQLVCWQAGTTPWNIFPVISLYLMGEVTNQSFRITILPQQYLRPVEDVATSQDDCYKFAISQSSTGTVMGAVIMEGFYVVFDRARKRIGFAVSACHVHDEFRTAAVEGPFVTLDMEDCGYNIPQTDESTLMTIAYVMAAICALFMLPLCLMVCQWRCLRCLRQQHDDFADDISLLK

Row | % Inhibition (FS) 0.3 μM (0.3 μM test compound) [%] | % Inhibition (FS) 1 μM (1 μM test compound) [%] | % Inhibition (FS) 3 μM (3 μM test compound) [%] | SMILES | also measured
1 | – | – | – | CCOC(=O)C1CCC(N(C)C(=O)CCC(C2CCCCC2)N2Cc3cc(Oc4ccccc4)ccc3N=C2N)CC1 (stereo not drawn) [Compound 763] | % Inhibition (FS) (0.3 μM test compound, 0.3 µM): <30%; % Inhibition (FS) (1 μM test compound, 1 µM): 84%; % Inhibition (FS) (3 μM test compound, 3 µM): 109%
2 | – | – | – | CN(C(=O)c1cccc(CN2Cc3cc(Br)ccc3N=C2N)c1)C1CCCCC1 [Compound 802] | inhibition at 0.3 µM [1]: < 30%; inhibition at 1 µM [2]: < 30%; inhibition at 3 µM [3]: 50%
3 | – | – | – | NC1=Nc2ccc(-c3ccccc3Cl)cc2CN1CCNC(=O)C1CCOCC1 [Compound 689] | % Inhibition (FS) (0.3 μM test compound): 33%; % Inhibition (FS) (1 μM test compound): 82%; % Inhibition (FS) (3 μM test compound): 102%
4 | <30 | <30 | <30 | CC(=O)c1cccc(-c2ccc3c(c2)CN(CCNC(=O)CC2CCCC2)C(N)=N3)c1 [Compound 582] | –
5 | – | – | – | CC(CC(=O)NCCN1Cc2cc(-c3ccccc3)ccc2N=C1N)C(F)(F)F (stereo not drawn) [Compound 685] | % Inhibition (FS) (0.3 μM test compound): 50%; % Inhibition (FS) (1 μM test compound): 90%; % Inhibition (FS) (3 μM test compound): 101%
6 | – | – | – | CN(Cc1cccc(CC(=O)O)c1)C(=O)CCC(C1CCCCC1)N1Cc2cc(Oc3ccccc3)ccc2N=C1N (stereo not drawn) [Compound 778] | % Inhibition (FS) (0.3 μM test compound): <30%; % Inhibition (FS) (1 μM test compound): 77%; % Inhibition (FS) (3 μM test compound): 113%
7 | <30 | <30 | <30 | COc1ccc(-c2nc3ccccc3s2)c(Oc2ccc3c(c2)CN(Cc2cccc(C(=O)N(C)C4CCCCC4)c2)C(N)=N3)c1 [Compound 469] | –
8 | <30 | <30 | <30 | CC(c1ccccc1)c1ccc2c(c1)CN(Cc1cccc(C(=O)N(C)C3CCCCC3)c1)C(N)=N2 (stereo not drawn) [Compound 332] | –
9 | 106 | 118 | 128 | CC(C)C(CNC(=O)C12CC3CC(CC(C3)C1)C2)N1Cc2cc(Oc3ccccc3)ccc2N=C1N (stereo not drawn) [Compound 562] | –
10 | <30 | <30 | <30 | CC(=O)Nc1ccc(C(=O)NCCN2Cc3cc(-c4cccc(CO)c4)ccc3N=C2N)cc1 [Compound 593] | –
11 | <30 | 37 | 50 | CN(C(=O)c1cccc(CN2Cc3cc(Nc4ccc5ccccc5c4)ccc3N=C2N)c1)C1CCCCC1 [Compound 436] | –
12 | <30 | 26 | 62 | NC1=Nc2ccc(Oc3ccccc3)cc2CN1CCNCC1CCCCC1 [Compound 427] | –
13 | – | – | – | Cc1ccccc1-c1ccc2c(c1)CN(CCNC(=O)CCC(C)C)C(N)=N2 [Compound 661] | % Inhibition (FS) (0.3 μM test compound): 68%; % Inhibition (FS) (1 μM test compound): 98%; % Inhibition (FS) (3 μM test compound): 106%
14 | <30 | <30 | <30 | COc1ccccc1-c1ccc2c(c1)CN(CCNC(=O)C1(C(N)=O)CC1)C(N)=N2 [Compound 488] | –
15 | <30 | <30 | <30 | CN1CCC(N(C)C(=O)c2cccc(C(c3ccccc3)N3Cc4cc(Oc5ccccc5)ccc4N=C3N)c2)CC1 (stereo not drawn) [Compound 316] | –
16 | – | – | – | CCCC(=O)NCCN1Cc2cc(Br)ccc2N=C1N [Compound 808] | inhibition at 0.3 µM [1]: < 30%; inhibition at 1 µM [2]: < 30%; inhibition at 3 µM [3]: < 30%
17 | – | – | – | NC1=Nc2ccc(-c3ccc4ccccc4c3)cc2CN1CCNC(=O)C1CCC1 [Compound 663] | % Inhibition (FS) (0.3 μM test compound): <30%; % Inhibition (FS) (1 μM test compound): <30%; % Inhibition (FS) (3 μM test compound): <30%
18 | <30 | <30 | 53 | CN(C(=O)CCC(c1ccc(-c2ccccc2)cc1)N1Cc2cc(Oc3ccccc3)ccc2N=C1N)C1CCCCC1 (stereo not drawn) [Compound 420] | –
19 | – | – | – | NC1=Nc2ccc(-c3ccc4ccccc4c3)cc2CN1CCNC(=O)C1CCCC1 [Compound 664] | % Inhibition (FS) (0.3 μM test compound): <30%; % Inhibition (FS) (1 μM test compound): <30%; % Inhibition (FS) (3 μM test compound): <30%
20 | – | – | <30 | CN(C(=O)c1ccc2c(c1)C(N1Cc3cc(Oc4ccccc4)ccc3N=C1N)CC2)C1CCCCC1 (stereo not drawn) [Compound 145] | % Inhibition (FS) 10 μM (10 μM test compound): 37%
21 | – | – | – | CCCC(CNC(=O)C12CC3CC(CC(C3)C1)C2)N1Cc2cc(Oc3ccccc3)ccc2N=C1N (stereo not drawn) [Compound 555] | % Inhibition (FS) 0.3 μM (0.3 μM test compound, 0.3 µM): <30%; % Inhibition (FS) 1 μM (1 μM test compound, 1 µM): <30%; % Inhibition (FS) 3 μM (3 μM test compound, 3 µM): 46%
22 | – | – | – | NC1=Nc2ccc(C3=CCCCC3)cc2CN1CCNC(=O)C1CCC(C(F)(F)F)CC1 (stereo not drawn) [Compound 704] | % Inhibition (FS) (0.3 μM test compound): <30%; % Inhibition (FS) (1 μM test compound): <30%; % Inhibition (FS) (3 μM test compound): <30%
23 | – | – | 42 | NC1=Nc2ccc(Oc3ccccc3)cc2CN1C1CCN(C(=O)C2CCCCC2)C1 (stereo not drawn) [Compound 119] | % Inhibition (FS) 10 μM (10 μM test compound): 75%

Row | % Inhibition (FS) 0.3 μM (0.3 μM test compound) [%] | % Inhibition (FS) 1 μM (1 μM test compound) [%] | % Inhibition (FS) 3 μM (3 μM test compound) [%] | SMILES | also measured
24 | – | – | – | CC(=O)N1CCC(C(=O)NCCN2Cc3cc(-c4ccccc4Cl)ccc3N=C2N)CC1 [Compound 691] | % Inhibition (FS) (0.3 μM test compound): <30%; % Inhibition (FS) (1 μM test compound): <30%; % Inhibition (FS) (3 μM test compound): 51%
25 | – | – | – | CN(CCCCC(=O)O)C(=O)CC[C@@H](C1CCCCC1)N1Cc2cc(Oc3ccccc3)ccc2N=C1N [Compound 752] | % Inhibition (FS) (0.3 μM test compound): 45%; % Inhibition (FS) (1 μM test compound): 81%; % Inhibition (FS) (3 μM test compound): 109%
26 | <30 | <30 | <30 | CCCC=Cc1ccc2c(c1)CN(CCNC(=O)C1CCCCC1)C(N)=N2 [Compound 577] | –
27 | <30 | <30 | 37 | CC(C)(C)OC(=O)N1CCCCC(N2Cc3cc(Oc4ccccc4)ccc3N=C2N)C1 (stereo not drawn) [Compound 510] | –
28 | <30 | <30 | 50 | CCc1ccccc1Sc1ccc2c(c1)CN(Cc1cccc(C(=O)N(C)C3CCCCC3)c1)C(N)=N2 [Compound 406] | –
29 | – | – | – | COc1ccccc1-c1ccc2c(c1)CN([C@@H](CCC(=O)N(C)Cc1cc(-c3ccccc3)on1)C1CCCCC1)C(N)=N2 [Compound 719] | % Inhibition (FS) (0.3 μM test compound): 31%; % Inhibition (FS) (1 μM test compound): <30%; % Inhibition (FS) (3 μM test compound): 81%
30 | <30 | <30 | <30 | N#Cc1cccc(C(=O)NCCN2Cc3cc(-c4cncnc4)ccc3N=C2N)c1 [Compound 567] | –
31 | <30 | <30 | 73 | CC(C)(C)NS(=O)(=O)c1ccccc1-c1ccc2c(c1)CN(CCNC(=O)C1CCCCC1)C(N)=N2 [Compound 542] | –
32 | <30 | 49 | 40 | Cc1cc(C)cc(Oc2ccc3c(c2)CN(Cc2cccc(C(=O)N(C)C4CCCCC4)c2)C(N)=N3)c1 [Compound 228] | –
33 | <30 | <30 | 48 | CN(C(=O)CCC(C1CCCCC1)N1Cc2cc(Oc3ccccc3)ccc2N=C1N)C1CCC(O)CC1 (stereo not drawn) [Compound 639] | –
34 | <30 | <30 | 37 | COc1ccccc1-c1cc2c(cc1F)CN(CCC(=O)NC1C3CC4CC(C3)CC1C4)C(N)=N2 (stereo not drawn) [Compound 620] | –
35 | <30 | 31 | 96 | CC1CCCCN1C(=O)CCCC(CCC(=O)N1CCCCC1C)N1Cc2cc(Oc3ccccc3)ccc2N=C1N (stereo not drawn) [Compound 504] | –
36 | <30 | <30 | 38 | CCCCCC1CCC(C(=O)NCCN2Cc3cc(Oc4ccccc4)ccc3N=C2N)CC1 (stereo not drawn) [Compound 182] | –
37 | <30 | 62 | 100 | Cc1ccccc1-c1ccc2c(c1)CN(CCNC(=O)C13CC4CC(CC(C4)C1)C3)C(N)=N2 [Compound 658] | –
38 | – | – | – | NC1=Nc2ccc(Oc3ccccc3)cc2CN1Cc1cccc(C(=O)O)c1 [Compound 805] | inhibition at 0.3 µM [1]: < 30%; inhibition at 1 µM [2]: < 30%; inhibition at 3 µM [3]: < 30%
39 | <30 | <30 | 48 | CN(C(=O)c1cccc(CN2Cc3cc(-c4ccccc4OCc4ccccc4)ccc3N=C2N)c1)C1CCCCC1 [Compound 327] | –
40 | – | – | – | CCCC(CNC(=O)C1CCCCC1)N1Cc2cc(Oc3ccccc3)ccc2N=C1N (stereo not drawn) [Compound 554] | % Inhibition (FS) 0.3 μM (0.3 μM test compound, 0.3 µM): <30%; % Inhibition (FS) 1 μM (1 μM test compound, 1 µM): <30%; % Inhibition (FS) 3 μM (3 μM test compound, 3 µM): 42%
41 | <30 | <30 | <30 | CCCC=Cc1ccc2c(c1)CN(CCNC(=O)CC1CCCC1)C(N)=N2 [Compound 580] | –
42 | <30 | 34 | <30 | CCCC(CCC)C(=O)N1CCCC(N2Cc3cc(Oc4ccccc4)ccc3N=C2N)C1 (stereo not drawn) [Compound 612] | –
43 | <30 | <30 | <30 | CC(=O)Nc1ccccc1-c1ccc2c(c1)CN(CCNC(=O)C1CCCCC1)C(N)=N2 [Compound 541] | –
44 | – | – | – | CN(C(=O)c1ccc2c(c1)C(N1Cc3cc(Oc4ccccc4)ccc3N=C1N)c1ccccc1-2)C1CCCCC1 (stereo not drawn) [Compound 125, 9-(2-Amino-6-phenoxy-4H-quinazolin-3-yl)-9H-fluorene-2-carboxylic acid cyclohexyl-methyl-amide] | inhibition at 3 µM (3 μM test compound, read-out: % Inhibition (FS) 3 μM): 42%; inhibition at 10 µM (10 μM test compound, read-out: % Inhibition (FS) 10 μM): 80%
45 | – | – | – | CCCCC(CC)C(=O)NCCN1Cc2cc(-c3cnc4ccccc4c3)ccc2N=C1N (stereo not drawn) [Compound 676] | % Inhibition (FS) (0.3 μM test compound): 33%; % Inhibition (FS) (1 μM test compound): <30%; % Inhibition (FS) (3 μM test compound): 44%
